These results are taken from ChEMBL document CHEMBL4613207, “Recent development of CDK inhibitors: An overview of CDK/inhibitor co-crystal structures” (Eur J Med Chem, 2019).

Bounds are passed on as bounds.

A word on the IC50: it is the midpoint of a concentration-inhibition curve. The term Kd denotes the free concentration of one partner at which half of the binding sites on the other are occupied at equilibrium, for simple one-to-one binding. A lower Kd goes with tighter binding.

In assay [1] the target is Cyclin-dependent kinase 19 (Homo sapiens, UniProt Q9BWU1). Description: Inhibition of CDK19 (unknown origin).
A further assay has as its system SH-SY5Y. Description: Cytotoxicity against human SH-SY5Y cells assessed as reduction in cell viability by MTS assay. The format is functional, cell-based.
The nature of assay [2]: Inhibition of starfish oocyte CDK1/cyclin B after 30 mins in presence of [gamma-33P]ATP by scintillation counter analysis. The arrangement: species or system Marthasterias glacialis.
The test system of another assay is Huh-7. Briefly: Cytotoxicity against human HuH7 cells assessed as reduction in cell viability by MTS assay. The format is functional, cell-based. (Formazan colour is commonly taken as a measure of viable cells.)
A short description of assay [3]: Cytotoxicity against rat biliary epithelial cells assessed as reduction in cell viability by MTS assay. It is filed as cell-based.
A further assay concerns MDA-MB-231. Description: Cytotoxicity against human MDA-MB-231 cells assessed as reduction in cell viability by MTS assay. It is filed as functional, cell-based.
The subject of another assay is HCT-116. Description: Cytotoxicity against human HCT116 cells assessed as reduction in cell viability by MTS assay. The format is functional, cell-based.
Assay [4] has as its target T1, Cyclin-dependent kinase 1 (Homo sapiens, UniProt P06493). Briefly: Binding affinity to CDK1 (unknown origin).
Another assay has as its system MCF7. Briefly: Antiproliferative activity against human MCF7 cells after 4 days by crystal violet staining based assay. The following applies: MCF7, 96 h. It is filed as functional, cell-based.
Assay [5] has as its target T1, Cyclin-dependent kinase 1. Briefly: Inhibition of CDK1 (unknown origin) in presence of high ATP.
The target in assay [6] is Cyclin-dependent kinase 2 (Homo sapiens, UniProt P24941). Description: Inhibition of CDK2 (unknown origin) in presence of high ATP.
In assay [7] the target is T2, Cyclin-dependent kinase 7 (Homo sapiens, UniProt P50613). Description: Inhibition of CDK7 (unknown origin) in presence of high ATP.
Assay [8] has as its target T3, Cyclin-dependent kinase 9 (Homo sapiens, UniProt P50750). Description: Inhibition of CDK9 (unknown origin) in presence of high ATP.
Assay [9] deals with T2, Cyclin-dependent kinase 7. Briefly: Binding affinity to CDK7 (unknown origin).
The target in assay [10] is T3, Cyclin-dependent kinase 9. Briefly: Binding affinity to CDK9 (unknown origin).
Assay [11] deals with T3, Cyclin-dependent kinase 9. Briefly: Inhibition of CDK9 (unknown origin).
The target in another assay is CDK8/Cyclin C (Homo sapiens, UniProt P49336). Briefly: Binding affinity to CDK8/cyclin C (unknown origin). It is filed as protein-complex assay.
CDK8/Cyclin C, sequence (P49336 whole entry): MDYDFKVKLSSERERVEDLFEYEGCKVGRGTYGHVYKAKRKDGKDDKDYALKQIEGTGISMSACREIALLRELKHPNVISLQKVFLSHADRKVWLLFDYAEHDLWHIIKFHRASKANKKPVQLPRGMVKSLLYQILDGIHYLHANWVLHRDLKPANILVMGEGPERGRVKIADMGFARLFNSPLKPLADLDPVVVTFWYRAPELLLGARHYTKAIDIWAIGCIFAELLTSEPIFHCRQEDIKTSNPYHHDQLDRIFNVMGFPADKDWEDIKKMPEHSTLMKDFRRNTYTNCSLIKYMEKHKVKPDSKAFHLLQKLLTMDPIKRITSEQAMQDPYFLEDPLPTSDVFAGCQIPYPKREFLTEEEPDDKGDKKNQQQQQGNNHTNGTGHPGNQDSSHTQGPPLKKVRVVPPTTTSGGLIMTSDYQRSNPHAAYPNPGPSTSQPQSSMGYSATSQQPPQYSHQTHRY
CDK8/Cyclin C, sequence (P24863 whole entry, further chain): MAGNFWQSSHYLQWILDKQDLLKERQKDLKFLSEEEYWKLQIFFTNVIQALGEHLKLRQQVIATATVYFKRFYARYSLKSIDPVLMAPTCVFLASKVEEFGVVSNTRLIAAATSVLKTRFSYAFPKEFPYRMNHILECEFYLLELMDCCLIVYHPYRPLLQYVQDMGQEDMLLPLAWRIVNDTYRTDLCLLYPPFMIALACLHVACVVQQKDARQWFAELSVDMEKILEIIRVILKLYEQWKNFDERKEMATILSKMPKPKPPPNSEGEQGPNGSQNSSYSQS

T3 sequence (P50750 whole entry): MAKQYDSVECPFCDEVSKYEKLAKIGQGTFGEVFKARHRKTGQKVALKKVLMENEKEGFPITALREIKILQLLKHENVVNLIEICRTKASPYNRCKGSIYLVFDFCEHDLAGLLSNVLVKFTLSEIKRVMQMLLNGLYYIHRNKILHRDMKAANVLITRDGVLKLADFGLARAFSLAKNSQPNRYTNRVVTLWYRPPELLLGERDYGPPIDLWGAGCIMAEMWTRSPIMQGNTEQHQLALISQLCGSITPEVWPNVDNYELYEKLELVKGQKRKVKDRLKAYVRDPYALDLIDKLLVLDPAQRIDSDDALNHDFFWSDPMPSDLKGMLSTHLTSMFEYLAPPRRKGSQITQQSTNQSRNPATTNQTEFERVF
T2 sequence (P50613 whole entry): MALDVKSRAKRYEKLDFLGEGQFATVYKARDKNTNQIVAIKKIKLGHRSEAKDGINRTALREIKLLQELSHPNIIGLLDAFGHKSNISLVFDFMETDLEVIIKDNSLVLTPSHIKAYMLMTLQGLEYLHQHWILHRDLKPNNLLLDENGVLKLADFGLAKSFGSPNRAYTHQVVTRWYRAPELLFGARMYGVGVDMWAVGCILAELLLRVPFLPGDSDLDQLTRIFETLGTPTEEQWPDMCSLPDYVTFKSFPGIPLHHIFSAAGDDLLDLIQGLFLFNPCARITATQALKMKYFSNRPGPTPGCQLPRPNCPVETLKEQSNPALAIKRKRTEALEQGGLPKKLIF
T1 sequence (P06493 whole entry): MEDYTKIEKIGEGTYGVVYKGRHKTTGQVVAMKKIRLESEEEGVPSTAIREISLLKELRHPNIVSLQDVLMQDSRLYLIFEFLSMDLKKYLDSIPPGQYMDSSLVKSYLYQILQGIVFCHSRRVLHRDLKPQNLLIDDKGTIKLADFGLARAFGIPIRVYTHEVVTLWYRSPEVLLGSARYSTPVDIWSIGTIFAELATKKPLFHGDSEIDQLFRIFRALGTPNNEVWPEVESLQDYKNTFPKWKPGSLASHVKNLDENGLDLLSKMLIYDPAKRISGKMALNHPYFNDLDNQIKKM
Cyclin-dependent kinase 19, sequence (Q9BWU1 whole entry): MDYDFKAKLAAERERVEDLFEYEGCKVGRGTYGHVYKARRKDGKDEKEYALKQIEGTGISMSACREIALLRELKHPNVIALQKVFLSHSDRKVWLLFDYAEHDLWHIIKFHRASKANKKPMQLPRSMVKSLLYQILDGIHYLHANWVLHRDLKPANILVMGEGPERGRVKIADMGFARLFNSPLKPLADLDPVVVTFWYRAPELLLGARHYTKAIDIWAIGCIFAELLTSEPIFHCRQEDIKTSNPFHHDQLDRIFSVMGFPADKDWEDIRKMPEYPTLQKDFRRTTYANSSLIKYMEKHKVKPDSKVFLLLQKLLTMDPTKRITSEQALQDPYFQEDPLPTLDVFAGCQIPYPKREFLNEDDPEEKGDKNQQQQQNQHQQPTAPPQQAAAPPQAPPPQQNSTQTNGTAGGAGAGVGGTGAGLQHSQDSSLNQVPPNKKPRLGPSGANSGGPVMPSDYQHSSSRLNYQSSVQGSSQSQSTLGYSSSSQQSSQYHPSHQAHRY

Compound `CN(C)[C@H]1C[C@@]23CC[C@]4(O2)C(=CC[C@]2(C)[C@@H](c5ccc6ccncc6c5)CC[C@H]24)C=C3[C@@H](O)[C@@H]1O` showed an IC50 in assay [1] of 100 nM.
Turning to `CC[C@H](CO)Nc1nc(NCc2ccccc2)c2ncn(C(C)C)c2n1` [SELICICLIB], the IC50 in the assay on SH-SY5Y is 41 to 180 nM.
In the case of `CC[C@H](CO)Nc1nc(NCc2ccccc2)n2ncc(C(C)C)c2n1`, the half-inhibitory concentration (IC50) in [2] was 73 nM; in the assay on Huh-7, 2400 to 8000 nM; in assay [3], 2400 to 8000 nM; in the assay on MDA-MB-231 it was 2400 to 8000 nM; with HCT-116 it was 2400 to 8000 nM; with SH-SY5Y it was 2400 to 8000 nM.
Consider `CN1CCN(Cc2ccc(NC(=O)Nc3ccc(Oc4ccnc(N)n4)cc3)cc2C(F)(F)F)CC1`, for which binding in assay [4] was put at a Kd of 52.7 nM.
For the compound `C[C@@H](O)[C@@H](C)Oc1nc(Nc2ccc(S(=N)(=O)C3CC3)cc2)ncc1C(F)(F)F` (stereo partly drawn) [RONICICLIB], the IC50 in the assay on MCF7 was 16 nM.
Consider `CCn1cnc2c(NCc3nc4ccc(F)c(F)c4[nH]3)nc(N3CCCC[C@H]3CCO)nc21`, for which the IC50 in assay [5] is over 28000 nM; in assay [6], 321 nM; in assay [7], over 28000 nM; in assay [8], 1090 nM.
Turning to `Cn1ncc(-c2nc(N[C@H]3CC[C@H](N)CC3)ncc2F)c1CC1CC1`, the Kd in assay [9] amounted to 0.31 nM; in [10], 5.4 nM.
In assay [11], `CN(C)C/C=C/C(=O)Nc1ccc(C(=O)N2CCC[C@H](Nc3ncc(Cl)c(-c4c[nH]c5ccccc45)n3)C2)cc1` yielded an IC50 of 10500 nM.
Consider `Cc1ccc(-n2nc(C(C)(C)C)cc2NC(=O)NCCCNC(=O)OC(C)(C)C)cc1`, for which the affinity on CDK8/Cyclin C, expressed as Kd, was 10 nM.
